Results reported in US20130005747A1, “METHOD FOR SELECTING A CANCER THERAPY” (Cyclacel Limited, priority 2010, published 2013).

Assays:
Assay in all cases: Fractional growth, 72 h seliciclib
Type in all cases: cell-based, human
[1] = test system: UM-UC-3; settings: UM-UC-3 (Bladder), 15 μM seliciclib
From the text: (§1) A total of 270 human cancer cell lines from diverse cancer histopathologic types were investigated.

[2] = test system: RT112/84; settings: RT112/84 (Bladder), 15 μM seliciclib
From the text: as §1

[3] = test system: HSC-2; settings: HSC-2 (Head & Neck), 15 μM seliciclib
From the text: as §1

[4] = test system: 8505C; settings: 8505C (Thyroid), 15 μM seliciclib
From the text: as §1

[5] = test system: DoTc2 4510; settings: DoTc2 4510 (Cervix), 15 μM seliciclib
From the text: as §1

[6] = test system: AGS; settings: AGS (Stomach), 15 μM seliciclib
From the text: as §1

[7] = test system: AZ-521; settings: AZ-521 (Stomach), 15 μM seliciclib
From the text: as §1

[8] = test system: T84; settings: T84 (Intestine), 15 μM seliciclib
From the text: as §1

[9] = test system: PCI-15B; settings: PCI-15B (Head & Neck), 15 μM seliciclib
From the text: as §1

[10] = test system: HEC-1; settings: HEC-1 (Uterus), 15 μM seliciclib
From the text: as §1

[11] = test system: MKN1; settings: MKN1 (Stomach), 15 μM seliciclib
From the text: as §1

[12] = test system: RT4; settings: RT4 (Bladder), 15 μM seliciclib
From the text: as §1

[13] = test system: SW 13; settings: SW 13 (Kidney), 15 μM seliciclib
From the text: as §1

[14] = test system: NCI-H2122; settings: NCI-H2122 (Lung: NSCLC), 15 μM seliciclib
From the text: as §1

[15] = test system: MIA PaCa-2; settings: MIA PaCa-2 (Pancreas), 15 μM seliciclib
From the text: as §1

[16] = test system: HMCB; settings: HMCB (Skin), 15 μM seliciclib
From the text: as §1

[17] = test system: MDA-MB-231; settings: MDA-MB-231 (Breast), 15 μM seliciclib
From the text: as §1

[18] = test system: RVH-421; settings: RVH-421 (Skin), 15 μM seliciclib
From the text: as §1

[19] = test system: NH-6; settings: NH-6 (Kidney), 15 μM seliciclib
From the text: as §1

[20] = test system: JHH-2; settings: JHH-2 (Liver), 15 μM seliciclib
From the text: as §1

[21] = test system: PL4; settings: PL4 (Pancreas), 15 μM seliciclib
From the text: as §1

[22] = test system: NCI-H1573; settings: NCI-H1573 (Lung: NSCLC), 15 μM seliciclib
From the text: as §1

[23] = test system: EPLC-272H; settings: EPLC-272H (Lung: NSCLC), 15 μM seliciclib
From the text: as §1

[24] = test system: RERF-GC-1B; settings: RERF-GC-1B (Stomach), 15 μM seliciclib
From the text: as §1

[25] = test system: IGROV-1; settings: IGROV-1 (Ovary), 15 μM seliciclib
From the text: as §1

[26] = test system: GAMG; settings: GAMG (Brain), 15 μM seliciclib
From the text: as §1

[27] = test system: ESS-1; settings: ESS-1 (Uterus), 15 μM seliciclib
From the text: as §1

[28] = test system: EJ138; settings: EJ138 (Bladder), 15 μM seliciclib
From the text: as §1

[29] = test system: PCI-15; settings: PCI-15 (Head & Neck), 15 μM seliciclib
From the text: as §1

[30] = test system: U-2 OS; settings: U-2 OS (Bone), 15 μM seliciclib
From the text: as §1

[31] = test system: SW 900; settings: SW 900 (Lung: NSCLC), 15 μM seliciclib
From the text: as §1

[32] = test system: KU-19-19; settings: KU-19-19 (Bladder), 15 μM seliciclib
From the text: as §1

[33] = test system: G-401; settings: G-401 (Kidney), 15 μM seliciclib
From the text: as §1

[34] = test system: NCI-H2023; settings: NCI-H2023 (Lung: NSCLC), 15 μM seliciclib
From the text: as §1

[35] = test system: MCF7; settings: MCF7 (Breast), 15 μM seliciclib
From the text: as §1

[36] = test system: NCI-H1975; settings: NCI-H1975 (Lung: NSCLC), 15 μM seliciclib
From the text: as §1

[37] = test system: Daoy; settings: Daoy (Brain), 15 μM seliciclib
From the text: as §1

## CC[C@H](CO)Nc1nc(NCc2ccccc2)c2ncn(C(C)C)c2n1 [seliciclib, roscovitine]
[1]
  Fractional Growth: 0.3538
[2]
  Fractional Growth: 0.318
[3]
  Fractional Growth: 0.5464
[4]
  Fractional Growth: 0.4214
[5]
  Fractional Growth: 0.6205
[6]
  Fractional Growth: 0.2157
[7]
  Fractional Growth: 0.5115
[8]
  Fractional Growth: 0.5371
[9]
  Fractional Growth: 0.2847
[10]
  Fractional Growth: 0.4632
[11]
  Fractional Growth: 0.3594
[12]
  Fractional Growth: 0.9342
[13]
  Fractional Growth: 0.5624
[14]
  Fractional Growth: 0.1093
[15]
  Fractional Growth: 0.4826
[16]
  Fractional Growth: 0.161
[17]
  Fractional Growth: 0.4643
[18]
  Fractional Growth: 0.4165
[19]
  Fractional Growth: 0.5218
[20]
  Fractional Growth: 0.635
[21]
  Fractional Growth: 0.057
[22]
  Fractional Growth: 0.5485
[23]
  Fractional Growth: 0.6305
[24]
  Fractional Growth: 0.6411
[25]
  Fractional Growth: 0.4776
[26]
  Fractional Growth: 0.571
[27]
  Fractional Growth: 0.4399
[28]
  Fractional Growth: 0.3103
[29]
  Fractional Growth: 0.2641
[30]
  Fractional Growth: 0.5686
[31]
  Fractional Growth: 0.5842
[32]
  Fractional Growth: 0.3033
[33]
  Fractional Growth: 0.3542
[34]
  Fractional Growth: 0.4148
[35]
  Fractional Growth: 0.4137
[36]
  Fractional Growth: 0.4117
[37]
  Fractional Growth: 0.6209
